Laboratory results taken from ChEMBL document CHEMBL5365420, “Kinetics, Thermodynamics, and Structural Effects of Quinoline-2-Carboxylates, Zinc-Binding Inhibitors of New Delhi Metallo-β-lactamase-1 Re-sensitizing Multidrug-Resistant Bacteria for Carbapenems” (J Med Chem, 2023).

Experiments:
[1] = target: T1, Metallo-beta-lactamase type 2 (Bacteria, UniProt C7C422)
Description: Inhibition of C-terminal 6His-tagged full length NDM-1 (unknown origin) expressed in Escherichia coli BL21-DE3 using nitrocefin as substrate incubated for 15 mins followed by substrate addition by absorbance based microplate reader analysis

[2] = target: Metallo-beta-lactamase type 2 (Bacteria) (UniProt C7C422)
Description: Binding affinity to C-terminal 6His-tagged full length truncated NDM-1 (unknown origin) expressed in Escherichia coli BL21-DE3 assessed as change in Gibbs free energy by isothermal titration calorimetric analysis

[3] = target: T1, Metallo-beta-lactamase type 2; remark: listed apart in the source
Description: Binding affinity to C-terminal 6His-tagged full length truncated NDM-1 (unknown origin) expressed in Escherichia coli BL21-DE3 assessed as dissociation constant by isothermal titration calorimetric analysis

Klebsiella pneumoniae [4] = experiment: Antibacterial activity against clinical isolate Klebsiella pneumoniae 50/20 expressing blaNDM-5 co-expressing blaTEM-1 and blaSHV-1 assessed as meropenem MIC at 36.44 uM measured after 20 hrs by broth microdilution assay (reference value: 12 mg/L); type: functional
Klebsiella pneumoniae [5] = experiment: Antibacterial activity against clinical isolate Klebsiella pneumoniae 50/11 expressing blaNDM-1 co-expressing blaTEM-1/blaSHV-28/blaTEM-1/blaCTX-M-15 and blaOXA-1 assessed as meropenem MIC at 72.88 uM measured after 20 hrs by broth microdilution assay (reference value: 24 mg/L); type: functional
Klebsiella pneumoniae [6] = experiment: Antibacterial activity against clinical isolate Klebsiella pneumoniae 62/07 expressing blaVIM-19 co-expressing blaSHV-1/blaCTX-M-14 and blaCMY-4 assessed as meropenem MIC at 36.44 uM measured after 20 hrs by broth microdilution assay (reference value: 12 mg/L); type: functional
Escherichia coli [7] = experiment: Antibacterial activity against clinical isolate Escherichia coli K12 J53-ST10 618/15 expressing blaNDM-1 assessed as meropenem MIC at 72.88 uM measured after 20 hrs by broth microdilution assay (reference value: 24 mg/L); type: functional
Klebsiella pneumoniae [8] = experiment: Antibacterial activity against clinical isolate Klebsiella pneumoniae 50/20 expressing blaNDM-5 co-expressing blaTEM-1 and blaSHV-1 assessed as meropenem MIC at 72.88 uM measured after 20 hrs by broth microdilution assay (reference value: 24 mg/L); type: functional
[9] = target: Histone deacetylase 1 (Homo sapiens) (UniProt Q13547); experiment: Inhibition of C-terminal 6His/FLAG-tagged human recombinant full-length HDAC1 (1 to 482(end) residues) at 10 uM using Boc-Lys-(Ac)-AMC as substrate incubated for 10 mins followed by substrate addition measured after 1 hr by fluorescence based analysis relative to control; conditions: time 70.0 min
Sequence of Histone deacetylase 1 (Homo sapiens) (Q13547 whole entry): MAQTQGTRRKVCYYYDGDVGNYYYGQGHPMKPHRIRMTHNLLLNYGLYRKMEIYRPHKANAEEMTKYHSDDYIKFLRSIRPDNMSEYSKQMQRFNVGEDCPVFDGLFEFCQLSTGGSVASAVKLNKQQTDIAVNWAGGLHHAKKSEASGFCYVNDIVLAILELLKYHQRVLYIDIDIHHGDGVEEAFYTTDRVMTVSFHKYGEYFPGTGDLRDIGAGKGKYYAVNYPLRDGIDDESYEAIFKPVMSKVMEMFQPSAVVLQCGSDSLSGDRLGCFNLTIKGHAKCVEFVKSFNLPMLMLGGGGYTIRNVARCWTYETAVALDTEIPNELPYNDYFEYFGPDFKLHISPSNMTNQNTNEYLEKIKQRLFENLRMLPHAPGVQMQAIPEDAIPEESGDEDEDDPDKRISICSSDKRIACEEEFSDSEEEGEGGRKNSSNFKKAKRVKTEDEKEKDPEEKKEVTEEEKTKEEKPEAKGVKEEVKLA

Klebsiella pneumoniae [10] = experiment: Antibacterial activity against clinical isolate Klebsiella pneumoniae ST23213/19 expressing blaNDM-1 co-expressing blaOXA-48/blaSHV-11/blaCTX-M-15 and blaOXA-1 assessed as meropenem MIC at 36.44 uM measured after 20 hrs by broth microdilution assay (reference value: 12 mg/L); type: functional
[11] = Inhibition of VIM-2 (unknown origin) incubated for 15 mins by absorbance based microplate reader analysis; set-up: species or system Bacteria
[12] = target: Metallo-beta-lactamase type 2 (Bacteria) (UniProt C7C422); remark: listed apart in the source
Description: Binding affinity to C-terminal 6His-tagged full length truncated NDM-1 (unknown origin) expressed in Escherichia coli BL21-DE3 assessed as change in enthalpy in presence of EDTA by isothermal titration calorimetric analysis

[13] = Selectivity ratio of Ki for human recombinant MMP-2 CD to Ki for C-terminal 6His-tagged full length NDM-1 (unknown origin)
[14] = target: Carbonic anhydrase 2 (Homo sapiens) (UniProt P00918); experiment: Inhibition of human CA2 at 10 uM using pNPA as substrate preincubated for 15 mins followed by substrate by absorbance based analysis relative to control
Escherichia coli [15] = experiment: Antibacterial activity against clinical isolate Escherichia coli ST1012/10 expressing blaNDM-1 co-expressing blaTEM-1/blaCTX-M-15/blaOXA-1 and blaOXA-2 assessed as meropenem MIC at 36.44 uM measured after 20 hrs by broth microdilution assay (reference value: 12 mg/L); type: functional
Escherichia coli [16] = experiment: Antibacterial activity against clinical isolate Escherichia coli K12 J53-ST10 696/17 expressing blaNDM-1 co-expressing blaCMY-4 assessed as meropenem MIC at 72.88 uM measured after 20 hrs by broth microdilution assay (reference value: 24 mg/L); type: functional
Klebsiella pneumoniae [17] = experiment: Antibacterial activity against clinical isolate Klebsiella pneumoniae ST1493/10 expressing blaNDM-1 co-expressing blaCMY-2like/blaTEM-1/blaCTX-M-15/blaSHV-28/blaOXA-1 and blaOXA-9 assessed as meropenem MIC at 72.88 uM measured after 20 hrs by broth microdilution assay (reference value: 24 mg/L); type: functional
Escherichia coli [18] = experiment: Antibacterial activity against clinical isolate Escherichia coli K12 J53-ST10 684/18 expressing blaNDM-1 co-expressing blaCMY-2 and blaOXA-10 assessed as meropenem MIC at 36.44 uM measured after 20 hrs by broth microdilution assay (reference value: 12 mg/L); type: functional
Escherichia coli [19] = experiment: Antibacterial activity against clinical isolate Escherichia coli K12 J53-ST10 699/15 expressing blaNDM-1 assessed as meropenem MIC at 36.44 uM measured after 20 hrs by broth microdilution assay (reference value: 12 mg/L); type: functional
[20] = target: Metallo-beta-lactamase type 2 (Bacteria) (UniProt C7C422); remark: listed apart in the source
Description: Binding affinity to C-terminal 6His-tagged full length truncated NDM-1 (unknown origin) expressed in Escherichia coli BL21-DE3 assessed as change in enthalpy in presence of zinc sulfate by isothermal titration calorimetric analysis

Acinetobacter baumannii = experiment: Antibacterial activity against clinical isolate Acinetobacter baumannii IC 19/09 expressing blaNDM-1 co-expressing blaOXA-64 assessed as meropenem MIC at 36.44 uM measured after 20 hrs by broth microdilution assay (reference value: 12 mg/L); type: functional
Klebsiella pneumoniae [21] = experiment: Antibacterial activity against clinical isolate Klebsiella pneumoniae 50/11 expressing blaNDM-1 co-expressing blaTEM-1/blaSHV-28/blaTEM-1/blaCTX-M-15 and blaOXA-1 assessed as meropenem MIC at 36.44 uM measured after 20 hrs by broth microdilution assay (reference value: 12 mg/L); type: functional
Escherichia coli [22] = experiment: Antibacterial activity against clinical isolate Escherichia coli K12 J53-ST10 696/17 expressing blaNDM-1 co-expressing blaCMY-4 assessed as meropenem MIC at 36.44 uM measured after 20 hrs by broth microdilution assay (reference value: 12 mg/L); type: functional
Escherichia coli [23] = experiment: Antibacterial activity against clinical isolate Escherichia coli ST1012/10 expressing blaNDM-1 co-expressing blaTEM-1/blaCTX-M-15/blaOXA-1 and blaOXA-2 assessed as meropenem MIC at 72.88 uM measured after 20 hrs by broth microdilution assay (reference value: 24 mg/L); type: functional
Klebsiella pneumoniae [24] = experiment: Antibacterial activity against clinical isolate Klebsiella pneumoniae ST23213/19 expressing blaNDM-1 co-expressing blaOXA-48/blaSHV-11/blaCTX-M-15 and blaOXA-1 assessed as meropenem MIC at 72.88 uM measured after 20 hrs by broth microdilution assay (reference value: 24 mg/L); type: functional
[25] = Inhibition of IMP-1 (unknown origin) expressed in Escherichia coli BL21-DE3 incubated for 15 mins by absorbance based microplate reader analysis; set-up: species or system Bacteria
[26] = target: Metallo-beta-lactamase type 2 (Bacteria) (UniProt C7C422); remark: listed apart in the source
Description: Binding affinity to C-terminal 6His-tagged full length truncated NDM-1 (unknown origin) expressed in Escherichia coli BL21-DE3 assessed as change in enthalpy by isothermal titration calorimetric analysis

[27] = Inhibition of GIM1 (unknown origin) incubated for 15 mins by absorbance based microplate reader analysis; set-up: species or system Bacteria
Escherichia coli [28] = experiment: Antibacterial activity against clinical isolate Escherichia coli K12 J53-ST10 618/15 expressing blaNDM-1 assessed as meropenem MIC at 36.44 uM measured after 20 hrs by broth microdilution assay (reference value: 12 mg/L); type: functional
[29] = target: Metallo-beta-lactamase type 2 (Bacteria) (UniProt C7C422); remark: listed apart in the source

Sequence of Metallo-beta-lactamase type 2 (Bacteria) (C7C422 whole entry): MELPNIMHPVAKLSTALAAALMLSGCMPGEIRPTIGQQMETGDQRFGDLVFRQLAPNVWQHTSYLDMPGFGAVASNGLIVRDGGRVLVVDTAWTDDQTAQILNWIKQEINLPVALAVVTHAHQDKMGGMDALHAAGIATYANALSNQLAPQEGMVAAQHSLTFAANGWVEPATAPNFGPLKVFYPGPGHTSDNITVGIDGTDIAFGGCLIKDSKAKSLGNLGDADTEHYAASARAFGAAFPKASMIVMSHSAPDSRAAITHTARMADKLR
T1 sequence (C7C422 whole entry): as above

Question: With `O=C(O)c1ccc2cccc(NS(=O)(=O)c3ccccn3)c2n1` as the compound, how does the IC50 [1] read?
Answer: 290 nM

Question: What about the deltaG [2] of the same compound?
Answer: -9.54 kcal/mol

Question: What about the Kd [3] of the same compound?
Answer: 105 nM

Question: What about the MIC (Klebsiella pneumoniae [4]) of the same compound?
Answer: 0.5 µg/mL

Question: What about the MIC (Klebsiella pneumoniae [5]) of the same compound?
Answer: ≤ 0.125 µg/mL

Question: What about the MIC (Klebsiella pneumoniae [6]) of the same compound?
Answer: 2 µg/mL

Question: And the MIC (Escherichia coli [7])?
Answer: ≤ 0.125 µg/mL

Question: What about the MIC (Klebsiella pneumoniae [8]) of the same compound?
Answer: ≤ 0.125 µg/mL

Question: And the inhibition [9]?
Answer: < 5%

Question: And the MIC (Klebsiella pneumoniae [10])?
Answer: 16 µg/mL

Question: What about the IC50 [11] of the same compound?
Answer: 240 nM

Question: And the deltaH [12]?
Answer: -9.56 kcal/mol

Question: What about the Ratio Ki [13] of the same compound?
Answer: 40

Question: And the inhibition [14]?
Answer: < 5%

Question: What about the MIC (Escherichia coli [15]) of the same compound?
Answer: ≤ 0.125 µg/mL

Question: And the MIC (Escherichia coli [16])?
Answer: ≤ 0.125 µg/mL

Question: And the MIC (Klebsiella pneumoniae [17])?
Answer: 1 µg/mL

Question: What about the MIC (Escherichia coli [18]) of the same compound?
Answer: ≤ 0.125 µg/mL

Question: And the MIC (Escherichia coli [19])?
Answer: 0.5 µg/mL

Question: And the deltaH [20]?
Answer: -26.5 kcal/mol

Question: What about the MIC (Acinetobacter baumannii) of the same compound?
Answer: 4 µg/mL

Question: What about the MIC (Klebsiella pneumoniae [21]) of the same compound?
Answer: ≤ 0.125 µg/mL

Question: And the MIC (Escherichia coli [22])?
Answer: ≤ 0.125 µg/mL

Question: What about the MIC (Escherichia coli [23]) of the same compound?
Answer: ≤ 0.125 µg/mL

Question: And the MIC (Klebsiella pneumoniae [24])?
Answer: 16 µg/mL

Question: What about the IC50 [25] of the same compound?
Answer: 370 nM

Question: What about the deltaH [26] of the same compound?
Answer: -6.6 kcal/mol

Question: What about the IC50 [27] of the same compound?
Answer: 650 nM

Question: And the MIC (Escherichia coli [28])?
Answer: ≤ 0.125 µg/mL

Question: And the ΔTm [29]?
Answer: 15 °C
